Reference: ChEMBL document CHEMBL1129441, “Derivatives of the triazoloquinazoline adenosine antagonist (CGS15943) are selective for the human A3 receptor subtype” (J Med Chem, 1996)

Key:
Adenosine receptor A2a [1] = target: T1, Adenosine receptor A2a (Rattus norvegicus, UniProt P30543); test: Displacement of [3H]-[…] from Adenosine A2A receptor of rat striatal membranes; type: cell membranes, Membrane
[2] = Relative binding to rat A2A and human A3 adenosine receptors (ratio of IC50)
Adenosine receptor A3 [3] = target: T2, Adenosine receptor A3 (Homo sapiens, UniProt P0DMS8); test: biochemical
T2 sequence (P0DMS8 whole entry): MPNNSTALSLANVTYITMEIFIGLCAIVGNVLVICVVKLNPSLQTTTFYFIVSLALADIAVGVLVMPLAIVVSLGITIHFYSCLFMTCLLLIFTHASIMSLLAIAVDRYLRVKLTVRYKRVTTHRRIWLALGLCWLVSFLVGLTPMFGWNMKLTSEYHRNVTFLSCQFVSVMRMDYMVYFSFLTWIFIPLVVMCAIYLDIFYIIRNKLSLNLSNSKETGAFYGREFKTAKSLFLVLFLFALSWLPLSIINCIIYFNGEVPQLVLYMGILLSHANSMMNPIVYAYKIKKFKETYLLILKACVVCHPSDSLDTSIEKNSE
Description: In vitro binding affinity at human Adenosine A3 receptor from HEK293 cells by [125I]AB-MECA displacement.

Adenosine receptor A1 [4] = target: T3, Adenosine receptor A1 (Rattus norvegicus, UniProt P25099); test: Displacement of [3H]-(R)-PIA from Adenosine A1 receptor of rat cerebral cortex membranes; type: cell membranes, Membrane
T3 sequence (P25099 whole entry): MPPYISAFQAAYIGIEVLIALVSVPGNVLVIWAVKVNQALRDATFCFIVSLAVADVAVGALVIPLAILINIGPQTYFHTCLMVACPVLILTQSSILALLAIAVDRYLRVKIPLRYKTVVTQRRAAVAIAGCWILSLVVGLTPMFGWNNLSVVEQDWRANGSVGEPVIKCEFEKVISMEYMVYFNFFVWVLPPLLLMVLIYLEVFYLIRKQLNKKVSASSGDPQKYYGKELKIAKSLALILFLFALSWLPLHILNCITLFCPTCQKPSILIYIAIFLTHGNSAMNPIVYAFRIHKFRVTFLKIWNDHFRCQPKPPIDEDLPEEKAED

[5] = Relative binding to rat A1 and human A3 adenosine receptors (ratio of IC50)
Adenosine receptor A2a [6] = target: T1, Adenosine receptor A2a; test: (§1) Binding affinity for Adenosine A2A receptor from rat striatal membranes using [3H]-[…]
[7] = target: Adenosine receptor A2a (Rattus norvegicus) (UniProt P30543); test: as §1; details: concentration not given here
[8] = target: T4, Adenosine receptor A1 (Rattus norvegicus) (UniProt P25099); test: Binding affinity for Adenosine A1 receptor from rat cerebral cortex membranes using [3H]-(R)-PIA; type: tissue-based; details: concentration not given here
T4 sequence (whole entry): T3 sequence (P25099 whole entry)

Adenosine receptor A3 [9] = target: T5, Adenosine receptor A3 (Rattus norvegicus, UniProt P28647)
T5 sequence (P28647 whole entry): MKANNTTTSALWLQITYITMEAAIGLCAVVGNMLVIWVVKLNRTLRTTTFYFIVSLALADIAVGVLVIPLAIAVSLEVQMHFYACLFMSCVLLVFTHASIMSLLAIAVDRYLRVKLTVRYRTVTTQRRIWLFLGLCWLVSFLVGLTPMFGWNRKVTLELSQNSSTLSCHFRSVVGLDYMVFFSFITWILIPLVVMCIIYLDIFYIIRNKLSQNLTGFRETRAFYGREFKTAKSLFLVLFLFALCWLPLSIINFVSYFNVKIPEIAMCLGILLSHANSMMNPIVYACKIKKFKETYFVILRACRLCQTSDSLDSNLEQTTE
Description: Binding affinity for Adenosine A3 receptor from rat striatal membranes

Adenosine receptor A1 [10] = target: T3, Adenosine receptor A1; test: Binding affinity for Adenosine A1 receptor from rat cerebral cortex membranes using [3H](R)-PIA; type: tissue-based
Adenosine receptor A1 [11] = target: T3, Adenosine receptor A1; test: Binding affinity for A1 receptors from rat cerebral cortex membranes using [3H]-(R(-PIA; type: tissue-based

T1 sequence (P30543 whole entry): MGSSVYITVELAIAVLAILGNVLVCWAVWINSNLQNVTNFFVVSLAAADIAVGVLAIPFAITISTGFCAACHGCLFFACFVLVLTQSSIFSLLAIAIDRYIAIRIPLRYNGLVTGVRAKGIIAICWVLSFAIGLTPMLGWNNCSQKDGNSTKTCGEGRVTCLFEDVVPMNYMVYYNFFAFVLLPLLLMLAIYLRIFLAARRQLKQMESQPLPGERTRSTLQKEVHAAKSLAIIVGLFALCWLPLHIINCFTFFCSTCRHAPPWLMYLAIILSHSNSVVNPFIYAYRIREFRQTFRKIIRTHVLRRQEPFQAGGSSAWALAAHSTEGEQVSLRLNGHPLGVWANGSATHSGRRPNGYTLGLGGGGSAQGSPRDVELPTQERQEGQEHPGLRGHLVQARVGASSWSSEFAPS
Adenosine receptor A2a (Rattus norvegicus), sequence (P30543 whole entry): as above

`O=C(Nc1nc2ccc(Cl)cc2c2nc(-c3ccco3)nn12)c1cccc(I)c1` gave a Ki (Adenosine receptor A2a [1]) of 310 nM, a Ratio [2] of 13 and a Ki (Adenosine receptor A3 [3]) of 23.8 nM. For the same molecule, the Ki (Adenosine receptor A1 [4]) was 200 nM and the Ratio [5] was 8.4.

For `CCCCC(=O)Nc1nc2ccc(Cl)cc2c2nc(-c3ccco3)nn12`, the Ki (Adenosine receptor A2a [1]) was 48.8 nM, the Ratio [2] was 2.3 and the Ratio [5] was 1.3.

Work on `CC(C)(C)C(=O)Nc1nc2ccc(Cl)cc2c2nc(-c3ccco3)nn12` yielded a Ki (Adenosine receptor A2a [1]) of 88.8 nM, a Ratio [2] of 0.36 and a Ratio [5] of 0.84.

In the case of `Nc1nc2ccc(Cl)cc2c2nc(-c3ccc(Br)o3)nn12`, the Ki (Adenosine receptor A3 [3]) is reported as 64 nM and the IC50 (Adenosine receptor A2a [6]) is reported as 531 nM.

For `CCC(=O)Nc1nc2ccc(Cl)cc2c2nc(-c3ccco3)nn12`, the Ratio [2] was 14 and the Ratio [5] was 40.

Work on `CC(C)(C)OC(=O)NCCCC(=O)Nc1nc2ccc(Cl)cc2c2nc(-c3ccco3)nn12` yielded a Ki (Adenosine receptor A2a [1]) of 135 nM, a Ratio [2] of 4.1 and a Ki (Adenosine receptor A3 [3]) of 32.9 nM. The Ratio [5] was 2.8.

With `O=C(Nc1nc2ccc(Cl)cc2c2nc(-c3ccc(Br)o3)nn12)c1ccccc1` the inhibition [7] was less than 10% and the inhibition [8] was less than 10%.

With `NCCCC(=O)Nc1nc2ccc(Cl)cc2c2nc(-c3ccco3)nn12` the Ki (Adenosine receptor A2a [1]) was 14.4 nM, the Ratio [2] was 0.18 and the Ki (Adenosine receptor A3 [3]) was 80.8 nM. The Ratio [5] was 0.14.

In the case of `CCCn1c(=O)n2nc(-c3ccco3)nc2c2cc(Cl)ccc21`, the Ki (Adenosine receptor A2a [1]) is reported as 6960 nM, the Ratio [2] is reported as 3.8 and the Ki (Adenosine receptor A3 [3]) is reported as 1810 nM. For the same molecule, the Ki (Adenosine receptor A1 [4]) was 1850 nM and the Ratio [5] was 1.

Molecule `Nc1nc2ccc(Cl)cc2c2nc(-c3ccco3)nn12` [CGS-15943] has a Ki (Adenosine receptor A3 [9]) of 100000 nM and an IC50 (Adenosine receptor A2a [6]) of 3.3 nM.

`O=C(Nc1nc2ccc(Cl)cc2c2nc(-c3ccco3)nn12)c1ccccc1` gave a Ki (Adenosine receptor A2a [1]) of 273 nM, a Ratio [2] of 90 and a Ki (Adenosine receptor A3 [3]) of 3.03 nM. It also gave a Ki (Adenosine receptor A1 [4]) of 680 nM and a Ratio [5] of 220.

`CC(=O)Nc1nc2ccc(Cl)cc2c2nc(-c3ccco3)nn12` showed a Ki (Adenosine receptor A2a [1]) of 36.3 nM.

In the case of `Cc1ccc(-c2oc3ccc(Cl)cc3c(=O)c2Cl)c(OC(C)C)c1`, the IC50 (Adenosine receptor A2a [6]) is reported as greater than 100 nM and the Ki (Adenosine receptor A1 [10]) is reported as greater than 100000 nM.

Molecule `CCCC(=O)Nc1nc2ccc(Cl)cc2c2nc(-c3ccco3)nn12` has a Ki (Adenosine receptor A2a [1]) of 37.6 nM, a Ratio [2] of 2.6 and a Ratio [5] of 2.2.

`Oc1nc2ccc(Cl)cc2c2nc(-c3ccco3)nn12` showed a Ki (Adenosine receptor A2a [1]) of 4380 nM, a Ratio [2] of 17 and a Ki (Adenosine receptor A1 [4]) of 3950 nM. It also gave a Ratio [5] of 15.

For `CCOC(=O)C1=C(c2ccccc2)Nc2cc(C)c(C(=O)OCC)cc2C1/C=C/c1ccccc1` (stereo not given), the Ki (Adenosine receptor A3 [3]) was 0.11 nM, the IC50 (Adenosine receptor A2a [6]) was 4.77 nM and the IC50 (Adenosine receptor A1 [11]) was 5.93 nM.
